{
  "source": "patent US10493116B2",
  "about": "“Longevity gene expression enhancer” (Shiseido Company, Ltd., priority 2014, dated 2019)",
  "origin": "cited, not measured here",
  "key": {"[1]": {"molecular_target": "T1, sirtuin-1 (Homo sapiens, UniProt Q96EB6)", "T1 sequence (Q96EB6 1-747)": "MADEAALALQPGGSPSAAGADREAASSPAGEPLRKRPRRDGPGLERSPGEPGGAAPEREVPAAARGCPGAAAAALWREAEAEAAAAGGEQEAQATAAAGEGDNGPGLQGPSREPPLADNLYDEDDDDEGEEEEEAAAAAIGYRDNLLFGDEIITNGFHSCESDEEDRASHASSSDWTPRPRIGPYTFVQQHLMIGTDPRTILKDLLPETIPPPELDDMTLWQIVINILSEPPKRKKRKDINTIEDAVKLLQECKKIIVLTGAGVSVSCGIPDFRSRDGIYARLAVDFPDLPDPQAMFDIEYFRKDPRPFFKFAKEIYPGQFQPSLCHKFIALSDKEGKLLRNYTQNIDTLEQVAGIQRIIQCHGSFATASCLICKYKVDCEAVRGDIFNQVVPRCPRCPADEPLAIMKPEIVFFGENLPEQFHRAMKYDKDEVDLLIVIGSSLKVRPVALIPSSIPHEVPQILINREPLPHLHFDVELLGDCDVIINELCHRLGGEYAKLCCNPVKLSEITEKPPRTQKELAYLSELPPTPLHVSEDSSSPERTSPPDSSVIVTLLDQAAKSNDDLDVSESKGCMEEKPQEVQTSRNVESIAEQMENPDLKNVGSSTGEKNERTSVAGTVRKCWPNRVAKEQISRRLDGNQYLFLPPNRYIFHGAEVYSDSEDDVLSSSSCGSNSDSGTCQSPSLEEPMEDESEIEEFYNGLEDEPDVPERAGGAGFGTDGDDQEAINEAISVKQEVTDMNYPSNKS"}, "[2]": {"system": "sirtuin-1", "conditions": "quercetin produced from rutin in the body; J. Pharmacol. Sci., 2008, 108, 364-71"}},
  "data": [
    {"molecule": "O=C(/C=C/c1ccc(O)c(O)c1)O[C@@H]1C[C@](O)(C(=O)O)C[C@@H](O)[C@H]1O", "note": "[chlorogenic acid]", "values": [
      {"measurement": "sirtuin-1 activating effect", "setting": "[1]; PLoS One, 2014, 9(2), e89166", "result": "no sirtuin-1 activating effect"}
    ]},
    {"molecule": "COc1ccc([C@@H]2CC(=O)c3c(O)cc(O[C@@H]4O[C@H](CO[C@@H]5O[C@@H](C)[C@H](O)[C@@H](O)[C@H]5O)[C@@H](O)[C@H](O)[C@H]4O)cc3O2)cc1O", "note": "[hesperidin]", "values": [
      {"measurement": "effect of activating sirtuin-1", "setting": "[1]; at 5 μM, Biosci. Biotechnol. Biochem., 2012, 76(4), 640-645", "result": "effect of activating sirtuin-1"}
    ]},
    {"molecule": "O=c1c(O)c(-c2ccc(O)c(O)c2)oc2cc(O)cc(O)c12", "note": "[quercetin]", "values": [
      {"measurement": "sirtuin-1 expression inhibiting effect", "setting": "[2]", "result": "sirtuin-1 expression inhibiting effect"}
    ]}
  ]
}
